This is an account of results in paper PMC9010763 (The Journal of Biological Chemistry, 2022).

Like-named read-outs stand apart in the source and are kept apart here.

Common to all, as to assay type: biochemical
The target in test [1] is T1, SLC35B1 (Homo sapiens, UniProt P78383).
T1 construct: isoform 1, C-terminal GFP fusion (hSLC35B1-GFP)
T1 sequence (P78383 1-322): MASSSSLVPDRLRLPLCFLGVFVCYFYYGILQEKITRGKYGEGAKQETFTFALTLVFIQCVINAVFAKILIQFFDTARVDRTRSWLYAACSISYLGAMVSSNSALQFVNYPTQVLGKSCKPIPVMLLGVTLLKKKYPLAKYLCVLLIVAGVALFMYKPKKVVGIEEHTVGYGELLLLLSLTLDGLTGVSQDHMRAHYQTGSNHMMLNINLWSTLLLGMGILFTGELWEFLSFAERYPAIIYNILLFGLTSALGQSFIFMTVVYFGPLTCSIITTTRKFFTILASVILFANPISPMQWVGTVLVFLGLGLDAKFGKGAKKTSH
Description: [α^[…]]ATP uptake competition and counter-exchange, purified protein in PC-liposomes.

The target in test [2] is T1, SLC35B1. Description: inhibition of [α^[…]]ATP uptake at […], purified protein in PC-liposomes. As to conditions: read-out: % inhibition at 1 mM.
Test [3] addresses T1, SLC35B1. Kind of test: inhibition of [α^[…]]ATP uptake at […]; counter-exchange and efflux, purified protein in PC-liposomes. As to conditions: read-out: % inhibition at 1 mM.
Test [4] concerns the target T1, SLC35B1. Description: inhibition of [α^[…]]ATP uptake at […]; counter-exchange, purified protein in PC-liposomes. To be noted: read-out: % inhibition at 1 mM.

In the case of `Nc1ncnc2c1ncn2[C@@H]1O[C@H](COP(=O)(O)OP(=O)(O)O)[C@@H](O)[C@H]1O` [ADP], at SLC35B1 [1] (read-out: Ki), the Ki came out at 56.1 µM.
For the compound `Nc1ncnc2c1ncn2[C@@H]1O[C@H](COP(=O)(O)OP(=O)(O)OP(O)(O)=S)[C@@H](O)[C@H]1O` [ATPɣ[-S]], the inhibition at 1000 µM at SLC35B1 [2] was > 85%.
For the compound `Nc1ccn([C@@H]2O[C@H](COP(=O)(O)OP(=O)(O)OP(=O)(O)O)[C@@H](O)[C@H]2O)c(=O)n1` [CTP], at SLC35B1 [3], the inhibition at 1000 µM fell in the range of 50 to 60%.
The same measure, in the same setting: as for `Nc1nc2c(ncn2[C@@H]2O[C@H](COP(=O)(O)OP(=O)(O)O)[C@@H](O)[C@H]2O)c(=O)[nH]1` [GDP], the figure is 50 to 60%.
Consider `Nc1nc2c(ncn2[C@@H]2O[C@H](COP(=O)(O)OP(=O)(O)OP(=O)(O)O)[C@@H](O)[C@H]2O)c(=O)[nH]1` [GTP], for which, at SLC35B1 [1] (read-out: Ki), the Ki stood at 275 µM.
For `O=c1ccn([C@@H]2O[C@H](COP(=O)(O)OP(=O)(O)O)[C@@H](O)[C@H]2O)c(=O)[nH]1` [UDP], at SLC35B1 [1], the Ki amounted to 83 µM.
For `O=c1ccn([C@@H]2O[C@H](COP(=O)(O)OP(=O)(O)OP(=O)(O)O)[C@@H](O)[C@H]2O)c(=O)[nH]1` [UTP], the inhibition at 1000 µM on SLC35B1 [3] lay in the range of 70 to 85%.
On to `Nc1ncnc2c1ncn2[C@H]1C[C@H](O)[C@@H](COP(=O)(O)OP(=O)(O)OP(=O)(O)O)O1` [dATP], for which the inhibition at 1000 µM at SLC35B1 [4] is > 85%.

The Ki is a dissociation constant, usually derived from enzyme kinetics or from competition with a known ligand. Usually inhibition stands for the relative decrease from the control value, in per cent.
